Test results reported in patent US20120289524A1, “PYRROLO [3,2-E] [1,2,4] TRIAZOLO [1,5-A] PYRIMIDINES DERIVATIVES AS INHIBITORS OF MICROGLIA ACTIVATION” (Senexis Limited, priority 2009, published 2012).
Like-named read-outs stand apart in the source and are kept apart here.

Tests used:
[1] = test system: Mouse BALB/c monocyte macrophages, J774.2; test: Inhibition of β-amyloid induced activation: TNF-alpha release (ELISA / Meso Scale Discovery); format: cell-based; settings: J774.2 cells, 20 μM Aβ(1-42), 50 U/ml Interferon gamma, 24 hours, read-out: IC50 (μM) TNF-α release
Method: (§1) 1. Inhibition of β-amyloid Induced Activation.
(§2) Mouse BALB/c monocyte macrophages, J774.2, {ECACC 85011428} were grown and sub-cultured in cell media (DMEM containing 10% FBS, 1% L-glutamine and 1% penicillin/streptomycin). The J774 cells were plated at 100,000 cells/well in 50 μl cell media on 96 well plates and placed in a 37° C., 5% CO2 incubator overnight prior to experiments.
(§3) The addition of Aβ(1-42) and compounds to the J774 cells was performed using a Biotek precision 2000 liquid handling instrument. 3 μl of compound in DMSO ranging from 8 μM to 6 mM were pipetted into a “daughter plate” containing 294 μl of cell media and mixed thoroughly. 3 μl of Aβ(1-42) in DMSO at 4 mM was then added to the “daughter plate” and mixed thoroughly. 50 μl was then removed from the “daughter plate” and added to the plated J774 cells. The final concentrations in the wells containing 100 μl cell media were 20 μM Aβ(1-42), the compounds ranged from ˜40 nM to 30 μM in 1% DMSO and also in the presence of 50 U/ml Interferon gamma. The plates were incubated for 24 hours in a 37° C., 5% CO2 incubator. After 24 hours incubation the media from the wells were collected and stored at −20° C. until required for testing.
The TNF-alpha levels in the media were tested using a TNF-alpha ELISA (R&D Systems MTA00) or Meso Scale Discovery MS6000 Mouse Proinflammatory-7 kit, using the manufacturers instructions.

[2] = test system: Mouse BALB/c monocyte macrophages, J774.2; test: Inhibition of β-amyloid induced activation: nitric oxide release (Griess assay); format: cell-based; settings: J774.2 cells, 20 μM Aβ(1-42), 50 U/ml Interferon gamma, 24 hours, read-out: IC50 (μM) NO release
Method: as §1, §2, §3
The nitric oxide levels in the media were tested using the Griess assay (Promega G2930) using the manufacturer's instructions.

Pharmacokinetic data = settings: in vivo; for bioavailability: oral
[3] = iv, read-out: T1/2 i.v. (converted)
[4] = per oral, read-out: T1/2 per oral (converted)

| SMILES | IC50 [1] | IC50 [2] | half-life (Pharmacokinetic data; [3]) | bioavailability (Pharmacokinetic data) | half-life (Pharmacokinetic data; [4]) |
| --- | --- | --- | --- | --- | --- |
| Cc1nc2ncnn2c2c1CCN2[C@H](C)c1ccccc1 [Compound 4, reference compound] | > 30 µM |  |  |  |  |
| Cc1nc2ncnn2c2c1CCN2[C@@H](C)c1ccc(F)cc1 [Compound 1] | 0.48 µM | 0.24 µM | 0.87 h | 98.5% | 3.2 h |
| Cc1nc2ncnn2c2c1CCN2[C@@H](C)c1ccccc1 [reference compound] |  |  | 0.22 h | 34.5% | 2.4 h |
